As usually defined, the melting point is the temperature, or range, at which the solid turns liquid.

Where a name gives a salt, the structure may show the parent alone.

T1 sequence (P13945 whole entry): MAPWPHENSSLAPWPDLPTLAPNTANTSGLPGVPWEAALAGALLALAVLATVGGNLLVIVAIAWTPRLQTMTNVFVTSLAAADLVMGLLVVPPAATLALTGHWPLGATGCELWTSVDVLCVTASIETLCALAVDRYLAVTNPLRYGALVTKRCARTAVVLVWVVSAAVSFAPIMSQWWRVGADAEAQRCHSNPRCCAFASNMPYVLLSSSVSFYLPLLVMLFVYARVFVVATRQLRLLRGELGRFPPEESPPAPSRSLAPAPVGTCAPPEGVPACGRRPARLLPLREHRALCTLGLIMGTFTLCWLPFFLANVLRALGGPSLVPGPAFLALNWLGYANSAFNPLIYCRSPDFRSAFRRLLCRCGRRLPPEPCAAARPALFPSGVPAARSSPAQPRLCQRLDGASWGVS

Tested on in the first series: not given
Experiment: not given
Conditions: not given
Consider `Cl.Nc1ccc([C@H](O)CNC2CCN(c3ccc(CC4SC(=O)NC4=O)cc3)CC2)cn1` (stereo partly drawn), for which the melting point is 182 °C (dec.).
For the compound `CS(=O)(=O)Nc1cc(C(O)CNC2CCN(c3ccc(C=C4SC(=O)NC4=O)cc3)CC2)ccc1O` (stereo not drawn), the melting point is > 200 °C (dec.).
In turn, `CS(=O)(=O)Nc1ccc(C(O)CNC2CCN(c3ccc(CC4SC(=O)NC4=O)cc3)CC2)cn1` (stereo not drawn) (as salt: salt) [Example 138, N-[5-(2-{1-[4-(2,4-Dioxo-thiazolidin-5-ylmethyl)-phenyl]-piperidin-4-ylamino}-1-hydroxy-ethyl)-pyridin-2-yl]-methanesulfonamide] yielded a melting point of 57 to 59 °C.
On the same count and under the same terms, the same measure for `CS(=O)(=O)Nc1cc([C@@H](O)CNC2CCN(c3ccc(C(=O)NCC(=O)O)cc3)CC2)ccc1O` (as salt: sodium) [Example 197, [(4-{4-[((2R)-2-Hydroxy-2-{4-hydroxy-3-[(methylsulfonyl)amino]phenyl}ethyl)amino]-1-piperidinyl}benzoyl)amino]acetic acid]: > 85 °C (dec.); for `CC(C)C[C@H](NC(=O)c1ccc(N2CCC(NC[C@H](O)c3ccc(O)c(NS(C)(=O)=O)c3)CC2)cc1)C(=O)O` (as salt: sodium) [Example 199, (2S)-2-(4-{4-[(2R)-2-Hydroxy-2-(4-hydroxy-3-methanesulfonylamino-phenyl)-ethylamino]-piperidin-1-yl}-benzoylamino)-4-methyl-pentanoic acid]: > 177 °C (dec.).
On the same count and under the same terms, the result for `CS(=O)(=O)Nc1cc([C@@H](O)CNC2CCN(c3ccc(C(=O)N4CCC[C@H]4C(=O)O)cc3)CC2)ccc1O` (as salt: sodium) [Example 201, 1-(4-{4-[(2R)-2-Hydroxy-2-(4-hydroxy-3-methanesulfonylamino-phenyl)-ethylamino]-piperidin-1-yl}-benzoyl)-pyrrolidine-(2S)-2-carboxylic acid] reads > 220 °C (dec.); that for `CC(C)[C@H](NC(=O)c1ccc(N2CCC(NC[C@H](O)c3ccc(O)c(NS(C)(=O)=O)c3)CC2)cc1)C(=O)O` (as salt: sodium) [Example 203, (2S)-2-(4-{4-[(2R)-2-Hydroxy-2-(4-hydroxy-3-methanesulfonylamino-phenyl)-ethylamino]-piperidin-1-yl}-benzoylamino)-3-methyl-butyric acid], > 135 °C (dec.); that for `CS(=O)(=O)Nc1cc([C@@H](O)CNC2CCN(c3ccc(C(=O)N[C@@H](Cc4ccccc4)C(=O)O)cc3)CC2)ccc1O` (as salt: sodium) [Example 205, (2S)-2-(4-{4-[(2R)-2-Hydroxy-2-(4-hydroxy-3-methanesulfonylamino-phenyl)-ethylamino]-piperidin-1-yl}-benzoylamino)-3-phenyl-propionic acid], > 160 °C (dec.).
Consider `CC(C)(C)OC(=O)CN1C(=O)SC(Cc2ccc(N3CCC(NC[C@H](O)c4ccc(O)c(NS(C)(=O)=O)c4)CC3)cc2)C1=O` (stereo partly drawn) [Example 64, 5-[[4-[4-[[(R)-2-Hydroxy-2-[4-hydroxy-3-[(methylsulfonyl)amino]phenyl]ethyl]amino]-1-piperidinyl]phenyl]methyl]-2,4-dioxo-3-thiazolidineacetic acid tert-butyl-ester], for which the melting point fell in the range of 130 to 132 °C.
`CCOC(=O)CN1C(=O)SC(Cc2ccc(N3CCC(NC[C@H](O)c4ccc(O)c(NS(C)(=O)=O)c4)CC3)cc2)C1=O` (stereo partly drawn) [Example 66, 5-[[4-[4-[[(R)-2-Hydroxy-2-[4-hydroxy-3-[(methylsulfonyl)amino]phenyl]ethyl]amino]-1-piperidinyl]phenyl]methyl]-2,4-dioxo-3-thiazolidineacetic acid ethyl-ester] had a melting point of 153 to 155 °C.
For `CS(=O)(=O)Nc1cc(C(O)CNC2CCN(c3ccc(CC4SC(=O)NC4=O)cc3)CC2)ccc1O` (stereo not drawn) [Example 78], the melting point was > 150 °C (dec.).
The same measure, in the same setting: the result for `CC(C)S(=O)(=O)Nc1cc([C@@H](O)CNC2CCN(c3ccc(CC4SC(=O)NC4=O)cc3)CC2)ccc1O` (stereo partly drawn) [Example 94, (R)-Propane-2-sulfonic acid [5-(2-{1-[4-(2,4-dioxo-thiazolidin-5-ylmethyl)-phenyl]-piperidin-4-ylamino}-1-hydroxy-ethyl)-2-hydroxy-phenyl]-amide] reads > 175 °C (dec.); that for `O=C1NC(=O)C(Cc2ccc(N3CCC(NC[C@H](O)c4csc(C(F)(F)F)n4)CC3)cc2)S1` (stereo partly drawn) [Example 106, 5-{4-[4-({(2S)-2-Hydroxy-2-[2-(trifluoromethyl)-1,3-thiazol-4-yl]ethyl}amino)piperidine-1-yl]benzyl}-1,3-thiazolidine-2,4-dione], 108 to 113 °C.
Still for that read-out and setting: the same measure for `O=C1NC(=O)C(Cc2ccc(N3CCC(NC[C@H](O)c4cc(-c5ccc(Cl)c(Cl)c5)no4)CC3)cc2)S1` (stereo partly drawn) [Example 110, 5-{4-[4-({(2S)-2-[3-(3,4-Dichlorophenyl)isoxazol-5-yl]-2-hydroxyethyl}-amino)piperidine-1-yl}benzyl}-1,3-thiazole-2,4-dione]: 110 °C; for `Cc1ccc(OC[C@@H](O)CNC2CCN(c3ccc(CC4SC(=O)NC4=O)cc3)CC2)cn1` (stereo partly drawn) [Example 128, 5-(4-{4-[(2S)-2-Hydroxy-3-(6-methyl-pyridin-3-yloxy)-propylamino]-piperidin-1-yl}-benzyl)-thiazolidine-2,4-dione]: 87 °C (dec.).

A further series has as its target T1, human β3 adrenergic receptor (Homo sapiens, UniProt P13945).
T1 construct: Full length β3 AR clones (402 amino acids) containing the last 6 amino acids of hβ3-AR are prepared; expressed in transfected cells; host or cells: CHO (Chinese hamster ovary) cells
The series is described as follows: cAMP (SPA) response in CHO cells transfected with human β3 adrenergic receptor. It counts as cell-based. More on the design: key: fraction of maximal isoproterenol (10^-5 M) response. The conditions noted are these: maximal response relative to maximal response of isoproterenol at 10^-5 M. In outline:
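Reactions were stopped with 0.2N HCl and neutralised, and cAMP was measured by SPA. Activity is expressed as percent of the maximal 10^−5 M isoproterenol response.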
For `CC(C)(C)OC(=O)CN1C(=O)SC(Cc2ccc(N3CCC(NC[C@H](O)c4ccc(O)c(NS(C)(=O)=O)c4)CC3)cc2)C1=O` (stereo partly drawn) [Example 64, 5-[[4-[4-[[(R)-2-Hydroxy-2-[4-hydroxy-3-[(methylsulfonyl)amino]phenyl]ethyl]amino]-1-piperidinyl]phenyl]methyl]-2,4-dioxo-3-thiazolidineacetic acid tert-butyl-ester], the “IA(β3)” value turned out to be 1.
Same read-out and setting: the result for `CCOC(=O)CN1C(=O)SC(Cc2ccc(N3CCC(NC[C@H](O)c4ccc(O)c(NS(C)(=O)=O)c4)CC3)cc2)C1=O` (stereo partly drawn) [Example 66, 5-[[4-[4-[[(R)-2-Hydroxy-2-[4-hydroxy-3-[(methylsulfonyl)amino]phenyl]ethyl]amino]-1-piperidinyl]phenyl]methyl]-2,4-dioxo-3-thiazolidineacetic acid ethyl-ester] reads 0.81; that for `CS(=O)(=O)Nc1cc([C@@H](O)CNC2CCN(c3ccc(NC(=O)CC(=O)O)cc3)CC2)ccc1O` [Example 372, 3-(4-{4-[((2R)-2-Hydroxy-2-{4-hydroxy-3-[(methylsulfonyl)amino]phenyl}ethyl)amino]-1-piperidinyl}anilino)-3-oxopropanoic acid], 1; that for `CCOC(=O)CNC(=O)Nc1ccc(N2CCC(NC[C@H](O)c3ccc(O)c(NS(C)(=O)=O)c3)CC2)cc1` [Example 377, Ethyl {[(4-{4-[((2R)-2-hydroxy-2-{4-hydroxy-3-[(methylsulfonyl)amino]phenyl}-ethyl)amino]-1-piperidinyl}anilino)carbonyl]amino}acetate], 0.66.
As to `CS(=O)(=O)Nc1cc([C@@H](O)CNC2CCN(c3ccc(NC(=O)NCC(=O)O)cc3)CC2)ccc1O` [Example 378, {[(4-{4-[((2R)-2-Hydroxy-2-{4-hydroxy-3-[(methylsulfonyl)amino]phenyl}ethyl)amino]-1-piperidinyl}anilino)carbonyl]amino}acetic acid], the “IA(β3)” value was 0.94.
On the same count and under the same terms, the same measure for `O=C(CCl)Nc1ccc(N2CCC(NC[C@H](O)COc3cccc4[nH]c(=O)[nH]c34)CC2)cc1` [Example 382, 2-Chloro-N-{4-[4-({(2S)-2-hydroxy-3-[(2-oxo-2,3-dihydro-1H-benzimidazol-4-yl)oxy]propyl}amino)-1-piperidinyl]phenyl}acetamide]: 0.64.
The same measure, in the same setting: the same measure for `O=C(CN1CCOCC1)Nc1ccc(N2CCC(NC[C@H](O)COc3cccc4[nH]c(=O)[nH]c34)CC2)cc1` [Example 383, N-{4-[4-({(2S)-2-Hydroxy-3-[(2-oxo-2,3-dihydro-1H-benzimidazol-4-yl)oxy]propyl}-amino)-1-piperidinyl]phenyl}-2-(4-morpholinyl)acetamide]: 0.64.
Still for that read-out and setting: the same measure for `CN(C)CC(=O)Nc1ccc(N2CCC(NC[C@H](O)COc3cccc4[nH]c(=O)[nH]c34)CC2)cc1` [Example 384, 2-(Dimethylamino)-N-{4-[4-({(2S)-2-hydroxy-3-[(2-oxo-2,3-dihydro-1H-benzimidazol-4-yl)oxy]propyl}amino)-1-piperidinyl]phenyl}acetamide]: 0.64; for `COc1ccc(C(=O)Nc2ccc(N3CCC(NCC(O)c4ccc(O)c(NS(C)(=O)=O)c4)CC3)cc2)cc1OC` (stereo not drawn) [Example 385, N-(4-{4-[(2-Hydroxy-2-{4-hydroxy-3-[(methylsulfonyl)amino]phenyl}ethyl)amino]-1-piperidinyl}phenyl)-3,4-dimethoxybenzamide]: 1.12.
On to `CCCCOc1ccc(S(=O)(=O)Nc2ccc(N3CC(NC[C@H](O)COc4ccc(O)cc4)C3)cc2)cc1` [Example 411, 4-Butoxy-N-[4-(3-{[(2S)-2-hydroxy-3-(4-hydroxyphenoxy)propyl]amino}-1-azetidinyl)phenyl]benzenesulfonamide], for which the “IA(β3)” value was 0.49.
On the same count and under the same terms, the result for `COc1ccc(S(=O)(=O)Nc2ccc(N3CC(NC[C@H](O)COc4ccc(O)cc4)C3)cc2)cc1OC` [Example 412, N-[4-(3-{[(2S)-2-hydroxy-3-(4-hydroxyphenoxy)propyl]amino}-1-azetidinyl)phenyl]-3,4-dimethoxybenzenesulfonamide] reads 0.56; that for `CC(=O)Nc1ccc(S(=O)(=O)Nc2ccc(N3CC(NC[C@H](O)COc4ccc(O)cc4)C3)cc2)cc1` [Example 413, N-(4-{[4-(3-{[(2S)-2-Hydroxy-3-(4-hydroxyphenoxy)propyl]amino}-1-azetidinyl)anilino]-sulfonyl}phenyl)acetamide], 0.73.
As to `CC(=O)Nc1ccc(N2CC(NC[C@H](O)COc3cccc4[nH]c5ccccc5c34)C2)cc1` [Example 415, N-[4-(3-{[(2S)-3-(9H-Carbazol-4-yloxy)-2-hydroxypropyl]amino}-1-azetidinyl)phenyl]acetamide], the “IA(β3)” value stood at 0.35.
Still for that read-out and setting: the result for `COc1ccc(S(=O)(=O)Nc2ccc(N3CC(NC[C@H](O)COc4cccc5[nH]c6ccccc6c45)C3)cc2)cc1OC` [Example 416, N-[4-(3-{[(2S)-3-(9H-Carbazol-4-yloxy)-2-hydroxypropyl]amino}-1-azetidinyl)phenyl]-3,4-dimethoxybenzenesulfonamide] reads 0.48; that for `CC(=O)Nc1ccc(S(=O)(=O)Nc2ccc(N3CC(NC[C@H](O)COc4cccc5[nH]c6ccccc6c45)C3)cc2)cc1` [Example 417, N-(4-{[4-(3-{[(2S)-3-(9H-Carbazol-4-yloxy)-2-hydroxypropyl]amino}-1-azetidinyl)anilino]sulfonyl}phenyl)acetamide], 0.71.

(Values after patent US7022716B2, “Cyclic amine phenyl beta-3 adrenergic receptor agonists” (Wyeth, priority 2000, dated 2006).)
